Converted amounts (≈) assume the structure as drawn. Where two headings read alike, the source gives them in different places.
Experiments:
[1] = system: E. coli 026:B6 cef R (IV); experiment: In-vitro antibacterial activity, agar dilution technique; assay type: cell-based; details: Escherichia coli
Text: (§1) In-Vitro Antibacterial Activity (γ/ml)
(§2) Against Gram-positive And Gram-negative bacteria
(§3) As Determined By The Agar Dilution Technique

Escherichia coli 026:B6 = experiment: as above; assay type: cell-based
Text: as §1, §2, §3

K. aerogenes 1082 E = experiment: as above; assay type: cell-based; details: Klebsiella aerogenes
Text: as §1, §2, §3

[2] = system: Klebsiella aerogenes 1522 E; experiment: as above; assay type: cell-based
Text: as §1, §2, §3

P. rettgeri ATCC 9250 = experiment: as above; assay type: cell-based; details: Providencia rettgeri, ATCC9250
Text: as §1, §2, §3

[3] = system: Proteus morganii ATCC 25830; experiment: as above; assay type: cell-based; details: Morganella morganii, ATCC25830
Text: as §1, §2, §3

[4] = system: Pseudomonas aeruginosa 2598; experiment: as above; assay type: cell-based
Text: as §1, §2, §3

S. Aureus 209 P = experiment: as above; assay type: cell-based; details: Staphylococcus aureus
Text: as §1, §2, §3

S. Epidermidis = experiment: as above; assay type: cell-based; details: Staphylococcus epidermidis
Text: as §1, §2, §3

S. pyogenes ATCC 12384 = experiment: as above; assay type: cell-based; details: Streptococcus pyogenes
Text: as §1, §2, §3

[5] = system: Staphylococcus aureus Smith; experiment: as above; assay type: cell-based
Text: as §1, §2, §3

[6] = system: Streptococcus faecalis (4 Strains); experiment: as above; assay type: cell-based; details: Enterococcus faecalis
Text: as §1, §2, §3

[7] = system: Citrobacter Freundii ATCC 8090; experiment: as above; assay type: cell-based; details: ATCC8090
Text: as §1, §2, §3

[8] = system: Serratia marcescens ATCC 2902; experiment: as above; assay type: cell-based
Text: as §1, §2, §3

[9] = Plasma half-life after a single intravenous dose in the mouse; assay type: in vivo; details: 10 mg/kg, single intravenous dose 10 mg/kg, two compartments open model
Method: | ^(1) Determined after a single intravenous dose (10 mg/kg) in the | mouse; the plasma concentration vs. time data were best described | according to a two compartments open model with the tabulated

Escherichia coli G = experiment: Experimental infections in mice (intraperitoneal); assay type: in vivo; details: 6 h, E. coli G, intraperitoneal infection in mice, 3 × LD50 challenge, treatments at 30, 90, 360 minutes, read-out: ED50 (cumulative dose)
Method: (§4) ^(2) Intraperitoneal infection in mice with a 3 × LD50
(§5) challenge; treatments at 30 minutes after infection for S. aureus and 30,
(§6) 90, 360 minutes for E. coli and K. pneumoniae.

[10] = system: Klebsiella pneumoniae FI 5724; experiment: Experimental infections in mice (intraperitoneal); assay type: in vivo; details: FI5724, 6 h, K. pneumoniae FI 5724, intraperitoneal infection in mice, 3 × LD50 challenge, treatments at 30, 90, 360 minutes, read-out: ED50 (cumulative dose)
Method: as §4, §5, §6

[11] = system: Staphylococcus aureus Smith; experiment: Experimental infections in mice (intraperitoneal); assay type: in vivo; details: 0.5 h, S. aureus Smith, intraperitoneal infection in mice, 3 × LD50 challenge, treatment at 30 minutes after infection, read-out: ED50 (cumulative dose)
Method: as §4, §5, §6

[12] = ATCC12384, S. pyogenes ATCC 12384, agar dilution technique, read-out: In-Vitro Antibacterial Activity

Row | SMILES | MIC [1] | MIC (Escherichia coli 026:B6) | MIC (K. aerogenes 1082 E) | MIC [2] | MIC (P. rettgeri ATCC 9250) | MIC [3] | MIC [4] | MIC (S. Aureus 209 P) | MIC (S. Epidermidis) | MIC [5] | MIC [6] | MIC [7] | MIC (S. pyogenes ATCC 12384; [12]) | other results
1 | CO/N=C(\C(=O)N[C@@H]1C(=O)N2C(C(=O)O)=C(COC(C)=O)CS[C@H]12)c1csc(N)n1 [Cefotaxime] | 1.25 µg/mL (≈ 2.74 µM) | 0.38 µg/mL (≈ 0.834 µM) | 6.25 µg/mL (≈ 13.7 µM) | 0.095 µg/mL (≈ 0.209 µM) | 0.018 µg/mL (≈ 0.0395 µM) | 0.037 µg/mL (≈ 0.0812 µM) | 25 µg/mL (≈ 54.9 µM) | 1.56 µg/mL (≈ 3.43 µM) | 6.25 µg/mL (≈ 13.7 µM) | 0.77 µg/mL (≈ 1.69 µM) | 10 µg/mL (≈ 22 µM) |  |  | MIC (S. pyogenes ATCC 12384; ATCC12384, read-out: In-Vitro Antibacterial Activity): 1.25 µg/mL (≈ 2.74 µM)
2 | CC(=O)OCC1=C(C(=O)O)N2C(=O)C(C(C)O)C2S1 (stereo not drawn) [FCE 21420] | 3.12 µg/mL (≈ 10.9 µM) | 0.76 µg/mL (≈ 2.65 µM) | 0.76 µg/mL (≈ 2.65 µM) | 1.55 µg/mL (≈ 5.4 µM) | 1.52 µg/mL (≈ 5.29 µM) | 1.52 µg/mL (≈ 5.29 µM) | 100 µg/mL (≈ 348 µM) | 0.046 µg/mL (≈ 0.16 µM) | 0.76 µg/mL (≈ 2.65 µM) | 0.046 µg/mL (≈ 0.16 µM) | 0.1 µg/mL (≈ 0.348 µM) | 1.52 µg/mL (≈ 5.29 µM) | 0.046 µg/mL (≈ 0.16 µM) | MIC ([8]; Serratia marcescens, ATCC2902, read-out: In-Vitro Antibacterial Activity): 3.12 µg/mL (≈ 10.9 µM)
3 | C[C@@H](O)[C@H]1C(=O)N2C(C(=O)[O-])=C(c3ccc(C[n+]4ccccc4)cc3)S[C@H]12 [Compound 5, (5R,6S)-6-[(1R)-hydroxyethyl]-2-[4-(pyridiniomethyl)phenyl]penem-3-carboxylate] | 0.38 µg/mL (≈ 0.994 µM) | 0.19 µg/mL (≈ 0.497 µM) | 0.38 µg/mL (≈ 0.994 µM) | 0.38 µg/mL (≈ 0.994 µM) | 0.38 µg/mL (≈ 0.994 µM) | 0.38 µg/mL (≈ 0.994 µM) | 25 µg/mL (≈ 65.4 µM) | 0.005 µg/mL (≈ 0.0131 µM) | 0.19 µg/mL (≈ 0.497 µM) | 0.011 µg/mL (≈ 0.0288 µM) | 0.06 µg/mL (≈ 0.157 µM) | 0.19 µg/mL (≈ 0.497 µM) | 0.011 µg/mL (≈ 0.0288 µM) | MIC ([8]; ATCC2902, Serratia marcescens ATCC 2902, agar dilution technique, read-out: In-Vitro Antibacterial Activity): 0.76 µg/mL (≈ 1.99 µM); half-life ([9]; read-out: Plasma half-life t1/2 α): 5 min; half-life ([9]; read-out: Plasma half-life t1/2 β): 15 min; ED50 (Escherichia coli G): 0.5 mg/kg; ED50 [10]: 0.8 mg/kg; ED50 [11]: 0.06 mg/kg
